ChEMBL document CHEMBL3102714 (J Med Chem, 2013)
Where a SMILES comes first, the peptide text is derived from it.

Legend:
Assay type in all cases: cell-based
[1] = molecular target: Nicotinic acetylcholine receptor alpha6/alpha3/beta4 (Homo sapiens, UniProt P30926+P32297+Q15825); assay: Antagonist activity at human alpha6alpha3beta4 nAChR expressed in Xenopus oocytes assessed as inhibition of ACh-induced current by voltage clamp electrophysiology method
[2] = molecular target: Neuronal acetylcholine receptor; alpha3/alpha6/beta2/beta3 (Homo sapiens, UniProt P17787+P32297+Q05901+Q15825); assay: Antagonist activity at human alpha6/alpha3beta2beta3 nAChR expressed in Xenopus oocytes assessed as inhibition of ACh-induced current by voltage clamp electrophysiology method
[3] = molecular target: Neuronal acetylcholine receptor; alpha3/beta2 (Homo sapiens, UniProt P17787+P32297); assay: Antagonist activity at human alpha3beta2 nAChR expressed in Xenopus oocytes assessed as inhibition of ACh-induced current by voltage clamp electrophysiology method
[4] = molecular target: Neuronal acetylcholine receptor; alpha3/beta4 (Homo sapiens, UniProt P30926+P32297); assay: Antagonist activity at human alpha3beta4 nAChR expressed in Xenopus oocytes assessed as inhibition of ACh-induced current by voltage clamp electrophysiology method
Sequence of Neuronal acetylcholine receptor; alpha3/beta4 (P30926 whole entry): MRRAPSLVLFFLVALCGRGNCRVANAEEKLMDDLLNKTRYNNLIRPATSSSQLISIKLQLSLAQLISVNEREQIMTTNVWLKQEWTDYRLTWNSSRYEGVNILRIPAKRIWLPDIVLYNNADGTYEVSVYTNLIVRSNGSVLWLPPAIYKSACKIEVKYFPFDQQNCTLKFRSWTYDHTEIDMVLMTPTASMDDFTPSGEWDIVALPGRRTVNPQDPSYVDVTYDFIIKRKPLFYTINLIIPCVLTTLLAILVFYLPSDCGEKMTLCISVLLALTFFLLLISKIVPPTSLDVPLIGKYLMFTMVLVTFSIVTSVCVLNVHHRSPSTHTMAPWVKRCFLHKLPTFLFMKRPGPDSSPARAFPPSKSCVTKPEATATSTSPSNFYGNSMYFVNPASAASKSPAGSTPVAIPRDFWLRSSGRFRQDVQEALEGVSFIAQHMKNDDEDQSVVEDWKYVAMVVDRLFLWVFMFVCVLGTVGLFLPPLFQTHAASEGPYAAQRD
Sequence of Neuronal acetylcholine receptor; alpha3/beta4 (P32297 whole entry): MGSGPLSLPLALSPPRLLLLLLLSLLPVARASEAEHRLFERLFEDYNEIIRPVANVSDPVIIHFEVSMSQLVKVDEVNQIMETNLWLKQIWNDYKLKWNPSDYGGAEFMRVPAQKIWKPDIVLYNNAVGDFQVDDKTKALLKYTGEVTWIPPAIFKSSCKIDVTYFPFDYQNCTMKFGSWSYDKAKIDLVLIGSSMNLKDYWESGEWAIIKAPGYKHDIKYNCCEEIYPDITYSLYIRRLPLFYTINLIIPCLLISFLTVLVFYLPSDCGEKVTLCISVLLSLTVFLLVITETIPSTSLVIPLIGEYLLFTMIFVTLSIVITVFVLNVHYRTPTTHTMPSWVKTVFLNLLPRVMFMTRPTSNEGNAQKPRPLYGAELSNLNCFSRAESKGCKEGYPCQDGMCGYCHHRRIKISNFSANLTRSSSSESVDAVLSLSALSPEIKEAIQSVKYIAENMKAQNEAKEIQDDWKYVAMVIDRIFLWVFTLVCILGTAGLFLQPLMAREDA

Sequence of Nicotinic acetylcholine receptor alpha6/alpha3/beta4 (P30926 whole entry): as the sequence (P30926 whole entry) above
Sequence of Nicotinic acetylcholine receptor alpha6/alpha3/beta4 (P32297 whole entry): as the sequence (P32297 whole entry) above
Sequence of Nicotinic acetylcholine receptor alpha6/alpha3/beta4 (Q15825 whole entry): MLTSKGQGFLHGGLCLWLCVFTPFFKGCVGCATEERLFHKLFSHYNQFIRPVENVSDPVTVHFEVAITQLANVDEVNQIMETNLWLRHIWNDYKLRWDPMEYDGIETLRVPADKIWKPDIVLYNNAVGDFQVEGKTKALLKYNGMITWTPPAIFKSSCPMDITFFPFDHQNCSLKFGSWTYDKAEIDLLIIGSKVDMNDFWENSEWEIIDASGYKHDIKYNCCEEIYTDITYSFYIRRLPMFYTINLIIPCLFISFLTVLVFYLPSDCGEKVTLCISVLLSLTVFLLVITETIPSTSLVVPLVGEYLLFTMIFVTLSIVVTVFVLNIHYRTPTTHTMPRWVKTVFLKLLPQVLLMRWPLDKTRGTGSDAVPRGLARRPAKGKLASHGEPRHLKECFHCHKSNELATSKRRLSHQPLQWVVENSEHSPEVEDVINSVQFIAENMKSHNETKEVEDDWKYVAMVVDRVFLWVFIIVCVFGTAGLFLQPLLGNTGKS
Sequence of Neuronal acetylcholine receptor; alpha3/alpha6/beta2/beta3 (P17787 whole entry): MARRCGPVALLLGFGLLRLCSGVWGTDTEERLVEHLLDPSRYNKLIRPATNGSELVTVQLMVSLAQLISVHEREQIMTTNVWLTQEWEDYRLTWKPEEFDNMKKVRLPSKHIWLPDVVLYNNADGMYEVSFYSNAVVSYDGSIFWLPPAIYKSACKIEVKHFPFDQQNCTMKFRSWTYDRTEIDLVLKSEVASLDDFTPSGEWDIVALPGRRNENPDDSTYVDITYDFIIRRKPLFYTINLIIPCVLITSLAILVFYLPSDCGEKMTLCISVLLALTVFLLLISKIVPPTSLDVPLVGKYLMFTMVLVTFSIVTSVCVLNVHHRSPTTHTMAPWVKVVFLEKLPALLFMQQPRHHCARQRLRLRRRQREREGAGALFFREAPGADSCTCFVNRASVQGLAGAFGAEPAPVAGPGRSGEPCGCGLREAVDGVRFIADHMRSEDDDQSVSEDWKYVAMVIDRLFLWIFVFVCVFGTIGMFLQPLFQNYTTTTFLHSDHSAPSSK
Sequence of Neuronal acetylcholine receptor; alpha3/alpha6/beta2/beta3 (P32297 whole entry): as the sequence (P32297 whole entry) above
Sequence of Neuronal acetylcholine receptor; alpha3/alpha6/beta2/beta3 (Q15825 whole entry): as the sequence (Q15825 whole entry) above
Sequence of Neuronal acetylcholine receptor; alpha3/alpha6/beta2/beta3 (Q05901 whole entry): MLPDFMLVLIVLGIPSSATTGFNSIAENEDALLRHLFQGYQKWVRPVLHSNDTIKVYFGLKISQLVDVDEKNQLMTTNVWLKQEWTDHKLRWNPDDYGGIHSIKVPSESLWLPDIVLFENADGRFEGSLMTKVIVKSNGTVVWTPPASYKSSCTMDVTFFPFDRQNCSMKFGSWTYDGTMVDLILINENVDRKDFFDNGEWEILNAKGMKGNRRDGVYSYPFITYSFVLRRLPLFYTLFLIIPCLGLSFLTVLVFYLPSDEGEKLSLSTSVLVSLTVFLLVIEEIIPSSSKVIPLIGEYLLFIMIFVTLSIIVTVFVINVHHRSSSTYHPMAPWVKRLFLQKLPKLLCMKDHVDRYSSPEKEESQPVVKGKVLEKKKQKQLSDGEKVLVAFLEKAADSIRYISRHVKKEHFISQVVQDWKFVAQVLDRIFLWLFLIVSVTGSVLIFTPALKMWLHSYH
Sequence of Neuronal acetylcholine receptor; alpha3/beta2 (P17787 whole entry): as the sequence (P17787 whole entry) above
Sequence of Neuronal acetylcholine receptor; alpha3/beta2 (P32297 whole entry): as the sequence (P32297 whole entry) above

Compound: CC[C@H](C)[C@@H]1NC(=O)[C@H](CCC(N)=O)NC(=O)[C@@H]2CCCN2C(=O)[C@H](CC(N)=O)NC(=O)[C@H](Cc2cnc[nH]2)NC(=O)[C@H](C(C)C)NC(=O)[C@H]([C@@H](C)O)NC(=O)[C@@H]2CSSC[C@H](NC(=O)[C@@H]3CCCN3C(=O)[C@H](CC(=O)O)NC(=O)[C@@H](N)CCCN=C(N)N)C(=O)N[C@@H](CSSC[C@@H](C(N)=O)NC1=O)C(=O)N[C@@H](CO)C(=O)N[C@@H](CC(N)=O)C(=O)N1CCC[C@H]1C(=O)N[C@@H](C(C)C)C(=O)N2 (HELM PEPTIDE1{R.D.P.C.C.S.N.P.V.C.T.V.H.N.P.Q.I.C.[am]}$PEPTIDE1,PEPTIDE1,4:R3-10:R3|PEPTIDE1,PEPTIDE1,5:R3-18:R3$$$V2.0)
- IC50 [1]: 30.5 nM
- IC50 [2]: 0.95 nM
- IC50 [3]: 74.2 nM
- IC50 [4]: 518 nM
